Legend:
[1] = tested on: experimental autoimmune encephalomyelitis (EAE); conditions: up to day 25, when dosing was discontinued; cited from earlier work
[2] = tested on: collagen induced arthritis (CIA); conditions: cited from earlier work
lymphocyte = assay: Single and multiple ascending dose studies in healthy subjects; format: in vivo
chronic plaque psoriasis = conditions: cited from earlier work

SMILES	EAE disease onset and severity, prophylactic administration [1]	ankle diameters in CIA ([2]; prophylactic daily oral dose, day 17, similar to fingolimod or methotrexate)	histological parameters in knees and ankles of CIA rats ([2]; rat, in vivo)	lymphocyte lowering in healthy subjects (lymphocyte)	severity of chronic plaque psoriasis (chronic plaque psoriasis; chronic oral administration, phase 2)	associated adverse events (chronic plaque psoriasis; phase 2 psoriasis study)
O=C(O)C[C@H]1CCc2c1[nH]c1ccc(OCc3ccc(C4CCCC4)c(C(F)(F)F)c3)cc21 [Compound 1, (R)-2-(7-(4-cyclopentyl-3-(trifluoromethyl)benzyloxy)-1,2,3,4-tetrahydrocyclopenta[b]indol-3-yl)acetic acid]	prevented the onset and severity of disease relative to vehicle	significant reduction in ankle diameters	Improvement in histological parameters	demonstrated the lymphocyte lowering capabilities		
CCC/N=C1\S/C(=C\c2ccc(OC[C@H](O)CO)c(Cl)c2)C(=O)N1c1ccccc1C [ponesimod]					reduce the severity of chronic plaque psoriasis	dyspnea, elevated liver enzymes, bradycardia, headache and dizziness
